Data on 5 compounds can be found in PMC8391922, “The Combined Effect of Branching and Elongation on the Bioactivity Profile of Phytocannabinoids. Part I: Thermo-TRPs” (Biomedicines, 2021).

Where two headings read alike, the source gives them in different places.

Common to all, as to format: cell-based
One experiment has as its target T1, human TRPV1 (Homo sapiens, UniProt Q8NER1).
T1 construct: expressed in transfected cells; host or cells: HEK-293
Nature of the experiment: TRPV1-mediated elevation of intracellular Ca2+ (Fluo-4) in transfected HEK-293 cells. The settings on record: for TRPV1 Efficacy (% IM 4 μM): percentage of the response to ionomycin 4 μM, HEK-293. How it is done: (§1) Assays of rat TRPA1, TRPV2, TRPV3, TRPV4, and TRPM8 or human TRPV1 mediated elevation of intracellular Ca ^2+ in transfected HEK-293 cells were performed with a continuous monitoring of [Ca ^2+]i during the experiments. […] Cell fluorescence before and after the addition of various concentrations of test compounds was measured, normalizing the effects against the response to ionomycin (IM, 4 μM). The values of the effect on [Ca^2+]i in HEK-293 cells not transfected were used as baseline and subtracted from the values obtained from transfected cells. For TRPA1, agonist efficacy was expressed as a percentage of the effect on [Ca ^2+]i observed with 100 μM allylisothiocyanate. […] In the TRPV3 assay, TRPV3-expressing HEK293 cells were first sensitized with the structurally unrelated agonist 2-aminoethoxydiphenyl borate (100 μM). Antagonist/desensitizing behavior is evaluated against the agonist of the TRP analyzed by adding the compounds directly in the quartz cuvette 5 min before stimulation of cells with the agonist. […] Dose-response curve fitting (sigmoidal dose-response variable slope) and parameter estimation were performed with Graph-Pad Prism8 (GraphPad Software Inc., San Diego, CA, USA). All determinations were performed at least in triplicate.

Another experiment concerns the target T2, rat TRPA1 (Rattus norvegicus, UniProt Q6RI86).
T2 construct: expressed in transfected cells; host or cells: HEK-293
In words: TRPA1-mediated elevation of intracellular Ca2+ (Fluo-4) in transfected HEK-293 cells. Particulars: for TRPA1 Efficacy (%ITC 100 μM): percentage of the effect of 100 μM allylisothiocyanate on [Ca2+]i. How it is done:
as §1

In the next experiment the target is T3, rat TRPM8 (Rattus norvegicus, UniProt Q8R455).
T3 construct: expressed in transfected cells; host or cells: HEK-293
In words: TRPM8 antagonism of icilin-induced intracellular Ca2+ elevation (Fluo-4) in transfected HEK-293 cells. Particulars: compound added 5 min before agonist icilin 0.25 μM. How it is done:
as §1

A further experiment has as its target T4, rat TRPV2 (Rattus norvegicus, UniProt Q9WUD2).
T4 construct: expressed in transfected cells; host or cells: HEK-293
T4 sequence (Q9WUD2 1-761): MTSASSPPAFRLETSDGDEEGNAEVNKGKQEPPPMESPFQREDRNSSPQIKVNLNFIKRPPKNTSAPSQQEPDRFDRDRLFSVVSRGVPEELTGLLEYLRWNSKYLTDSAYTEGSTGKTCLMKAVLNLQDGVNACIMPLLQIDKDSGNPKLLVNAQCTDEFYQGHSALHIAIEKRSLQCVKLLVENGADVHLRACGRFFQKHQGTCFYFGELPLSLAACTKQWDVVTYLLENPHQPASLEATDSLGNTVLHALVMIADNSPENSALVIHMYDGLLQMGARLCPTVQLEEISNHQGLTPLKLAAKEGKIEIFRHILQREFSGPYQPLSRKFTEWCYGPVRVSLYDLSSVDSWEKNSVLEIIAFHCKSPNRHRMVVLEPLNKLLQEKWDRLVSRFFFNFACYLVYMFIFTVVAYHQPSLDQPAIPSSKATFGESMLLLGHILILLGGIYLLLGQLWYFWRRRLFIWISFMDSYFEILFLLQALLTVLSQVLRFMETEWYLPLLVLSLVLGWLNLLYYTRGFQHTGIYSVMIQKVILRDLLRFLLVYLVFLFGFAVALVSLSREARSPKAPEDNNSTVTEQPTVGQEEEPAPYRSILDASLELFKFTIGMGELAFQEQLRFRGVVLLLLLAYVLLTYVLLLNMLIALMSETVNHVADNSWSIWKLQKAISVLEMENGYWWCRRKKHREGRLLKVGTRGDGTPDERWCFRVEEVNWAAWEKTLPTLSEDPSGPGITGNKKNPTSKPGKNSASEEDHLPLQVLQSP
In words: TRPV2-mediated elevation of intracellular Ca2+ (Fluo-4) in transfected HEK-293 cells. The settings on record: for IC50: compound added 5 min before agonist CBD 2 μM; for TRPV2 Efficacy (% IM 4 μM): percentage of the response to ionomycin 4 μM, HEK-293. How it is done: as §1

Setting [1] is: antagonist/desensitizing, compound added 5 min before agonist capsaicin 0.1 μM.
Where [2] appears, read: antagonist/desensitizing, compound added 5 min before agonist capsaicin 0.1 μM, read-out: IC50 TRPV1.
Setting [3] is: antagonist/desensitizing, compound added 5 min before agonist AITC 100 μM, read-out: IC50 TRPA1.
The mark [4] stands for this setting: half-maximal increase in [Ca2+]i, HEK-293, read-out: TRPA1 Potency EC50.
[5] abbreviates: antagonist, read-out: IC50 TRPM8.
[6] abbreviates: antagonist/desensitizing, read-out: IC50 TRPV2.
Where [7] appears, read: IC50 TRPV2, antagonist/desensitizing.

T2 sequence (Q6RI86 whole entry): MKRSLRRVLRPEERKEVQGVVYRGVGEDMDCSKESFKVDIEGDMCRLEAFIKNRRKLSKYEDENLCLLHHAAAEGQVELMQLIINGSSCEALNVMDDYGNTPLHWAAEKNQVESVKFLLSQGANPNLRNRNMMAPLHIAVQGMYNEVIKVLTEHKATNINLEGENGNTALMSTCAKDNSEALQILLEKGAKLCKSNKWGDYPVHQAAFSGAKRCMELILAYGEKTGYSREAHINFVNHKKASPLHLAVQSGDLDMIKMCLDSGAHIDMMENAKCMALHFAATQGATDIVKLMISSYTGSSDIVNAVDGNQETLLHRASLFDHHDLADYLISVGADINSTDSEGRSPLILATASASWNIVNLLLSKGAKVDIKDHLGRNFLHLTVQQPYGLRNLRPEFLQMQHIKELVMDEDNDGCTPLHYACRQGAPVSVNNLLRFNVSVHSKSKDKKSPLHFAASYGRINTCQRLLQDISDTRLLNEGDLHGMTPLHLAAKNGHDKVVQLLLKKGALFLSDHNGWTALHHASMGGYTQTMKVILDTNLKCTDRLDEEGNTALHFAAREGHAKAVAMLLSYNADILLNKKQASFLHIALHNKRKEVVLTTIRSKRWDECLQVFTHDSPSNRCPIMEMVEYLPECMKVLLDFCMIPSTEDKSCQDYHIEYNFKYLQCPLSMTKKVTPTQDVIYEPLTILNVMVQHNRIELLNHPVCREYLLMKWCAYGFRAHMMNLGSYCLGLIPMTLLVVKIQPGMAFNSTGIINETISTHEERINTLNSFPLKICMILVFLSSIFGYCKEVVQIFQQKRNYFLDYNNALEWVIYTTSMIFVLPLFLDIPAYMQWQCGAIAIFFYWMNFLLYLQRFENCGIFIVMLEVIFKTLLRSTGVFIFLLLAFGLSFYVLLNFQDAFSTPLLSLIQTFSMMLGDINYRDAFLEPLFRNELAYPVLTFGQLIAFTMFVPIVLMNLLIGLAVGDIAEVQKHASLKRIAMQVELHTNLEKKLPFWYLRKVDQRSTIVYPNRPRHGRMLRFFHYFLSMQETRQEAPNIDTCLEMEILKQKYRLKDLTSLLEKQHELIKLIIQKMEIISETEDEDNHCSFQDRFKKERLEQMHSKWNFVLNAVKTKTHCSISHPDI
T1 sequence (Q8NER1 whole entry): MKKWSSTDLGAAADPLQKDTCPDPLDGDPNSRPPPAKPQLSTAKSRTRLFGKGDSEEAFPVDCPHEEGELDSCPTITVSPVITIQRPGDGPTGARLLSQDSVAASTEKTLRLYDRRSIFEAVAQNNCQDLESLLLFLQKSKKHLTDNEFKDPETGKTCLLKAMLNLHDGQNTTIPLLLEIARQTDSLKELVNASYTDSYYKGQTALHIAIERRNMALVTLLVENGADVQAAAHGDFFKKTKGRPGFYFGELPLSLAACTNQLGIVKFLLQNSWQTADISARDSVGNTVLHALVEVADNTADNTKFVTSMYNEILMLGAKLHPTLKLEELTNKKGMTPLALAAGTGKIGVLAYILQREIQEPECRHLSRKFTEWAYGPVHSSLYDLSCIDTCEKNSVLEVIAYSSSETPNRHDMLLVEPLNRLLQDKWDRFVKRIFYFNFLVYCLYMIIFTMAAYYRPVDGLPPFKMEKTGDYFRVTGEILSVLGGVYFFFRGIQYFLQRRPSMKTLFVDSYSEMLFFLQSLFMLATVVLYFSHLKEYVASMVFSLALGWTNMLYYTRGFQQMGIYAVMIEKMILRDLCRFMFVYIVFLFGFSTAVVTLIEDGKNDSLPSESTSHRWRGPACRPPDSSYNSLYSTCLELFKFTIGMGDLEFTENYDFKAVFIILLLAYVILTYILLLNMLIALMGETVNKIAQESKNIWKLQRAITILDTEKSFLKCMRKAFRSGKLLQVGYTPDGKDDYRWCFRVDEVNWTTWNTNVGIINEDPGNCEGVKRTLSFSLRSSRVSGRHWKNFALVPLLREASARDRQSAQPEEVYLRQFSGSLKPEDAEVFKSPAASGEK
T3 sequence (Q8R455 whole entry): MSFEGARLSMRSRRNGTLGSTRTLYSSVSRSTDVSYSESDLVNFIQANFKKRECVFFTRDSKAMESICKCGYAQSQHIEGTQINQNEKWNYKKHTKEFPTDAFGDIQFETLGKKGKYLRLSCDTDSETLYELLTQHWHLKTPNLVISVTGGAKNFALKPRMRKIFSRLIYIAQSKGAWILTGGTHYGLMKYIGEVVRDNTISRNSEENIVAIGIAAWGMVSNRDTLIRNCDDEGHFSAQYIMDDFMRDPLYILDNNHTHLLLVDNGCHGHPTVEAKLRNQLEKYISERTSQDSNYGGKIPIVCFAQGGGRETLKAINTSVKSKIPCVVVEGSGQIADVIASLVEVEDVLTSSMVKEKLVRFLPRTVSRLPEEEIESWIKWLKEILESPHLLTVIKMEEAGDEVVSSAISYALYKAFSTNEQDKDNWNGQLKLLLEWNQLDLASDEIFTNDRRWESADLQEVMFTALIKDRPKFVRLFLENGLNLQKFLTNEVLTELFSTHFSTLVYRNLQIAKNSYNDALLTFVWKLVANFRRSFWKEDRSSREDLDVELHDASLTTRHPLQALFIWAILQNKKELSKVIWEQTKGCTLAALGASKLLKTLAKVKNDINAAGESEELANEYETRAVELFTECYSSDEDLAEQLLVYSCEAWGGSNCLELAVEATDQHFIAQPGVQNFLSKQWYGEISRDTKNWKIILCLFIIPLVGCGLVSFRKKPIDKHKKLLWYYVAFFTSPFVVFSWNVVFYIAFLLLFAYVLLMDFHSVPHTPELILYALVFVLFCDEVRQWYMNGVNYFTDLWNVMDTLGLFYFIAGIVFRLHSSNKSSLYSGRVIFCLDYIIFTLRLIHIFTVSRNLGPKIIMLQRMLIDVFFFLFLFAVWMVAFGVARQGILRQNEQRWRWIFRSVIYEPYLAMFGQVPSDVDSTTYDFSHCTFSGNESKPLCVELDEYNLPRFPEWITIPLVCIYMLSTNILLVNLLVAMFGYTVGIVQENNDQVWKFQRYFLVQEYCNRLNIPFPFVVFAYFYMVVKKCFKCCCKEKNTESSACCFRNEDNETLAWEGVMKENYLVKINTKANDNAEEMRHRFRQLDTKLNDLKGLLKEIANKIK

For `C=C(C)[C@@H]1CCC(C)=C[C@H]1c1c(O)cc(C(C)(C)CCCCCC)cc1O` [1b, Depentyl-α,α-dimethylheptyl-cannabidiol], at human TRPV1 (setting [1]), the “IC50 TRPV1” value is “inactive”. Also, the IC50 (commonly the concentration that gives 50% inhibition) was more than 100 µM at human TRPV1 (setting [2]), 0.51 ± 0.03 µM on rat TRPA1 (setting [3]), 13.4 ± 2.1 µM on rat TRPM8 (setting [5]) and 16.8 ± 0.2 µM on rat TRPV2 (setting [6]). Moreover, at human TRPV1, the “TRPV1 Efficacy (% IM 4 μM)” value is recorded as less than 10%. On rat TRPA1 (setting [4]), the EC50 – broadly, the midpoint of the concentration-response curve – is 0.4 ± 0.15 µM. On rat TRPA1 (HEK-293), the “TRPA1 Efficacy (%ITC 100 μM)” value was 133.4 ± 5.3%. Besides, at rat TRPV2, the “TRPV2 Efficacy (% IM 4 μM)” value is on record as less than 10%.
`CCCCCCC(C)(C)c1cc(O)c(C/C=C(\C)CCC=C(C)C)c(O)c1` [7b, Depentyl-α,α-dimethylheptyl-cannabigerol]: the IC50 is more than 100 µM against human TRPV1; 1.7 ± 0.15 µM at rat TRPA1 (setting [3]); 9.2 ± 0.8 µM on rat TRPM8 (IC50 TRPM8, antagonist); 39.4 ± 4.5 µM at rat TRPV2 (setting [7]). In addition, on human TRPV1 (setting [1]), the “IC50 TRPV1” value was “inactive”. In addition, on human TRPV1, the “TRPV1 Efficacy (% IM 4 μM)” value was less than 10%. The EC50 at rat TRPA1 (setting [4]) amounted to 9.1 ± 2 µM; at rat TRPV2, 9.8 ± 0.6 µM. For the same compound, at rat TRPA1 (HEK-293), the “TRPA1 Efficacy (%ITC 100 μM)” value was 99.2 ± 4.5%. Further, the “TRPV2 Efficacy (% IM 4 μM)” value on rat TRPV2 is recorded as 65.3 ± 0.7%.
On to `CCCCCCC(C)(C)c1cc(O)c2c(c1)OC(C)(CCC=C(C)C)C=C2` (stereo not drawn) [8b, Depentyl-α,α-dimethylheptyl-cannabichromene], for which the EC50 on human TRPV1 was 12.8 ± 0.9 µM; on rat TRPA1, 0.76 ± 0.12 µM; on rat TRPV2 it was more than 50 µM. In addition, the IC50 at human TRPV1 is more than 100 µM; at rat TRPA1 it was 0.32 ± 0.01 µM; on rat TRPM8 (IC50 TRPM8, antagonist), more than 100 µM; at rat TRPV2 (setting [7]), 22.6 ± 0.2 µM. Further, the “TRPV1 Efficacy (% IM 4 μM)” value on human TRPV1 was found to be 18.9 ± 0.2%. The “TRPA1 Efficacy (%ITC 100 μM)” value at rat TRPA1 (HEK-293) stood at 120.4 ± 2.8%. For the same compound, the “IC50 TRPM8” value on rat TRPM8 (antagonist) is “totally inactive”. In addition, the “TRPV2 Efficacy (% IM 4 μM)” value on rat TRPV2 was 76.1 ± 0.6%.
Consider `CCCCCCCc1cc(O)c2c(c1)OC(C)(CCC=C(C)C)C=C2` (stereo not shown) [8c, Depentyl-5-n-heptylcannabichromene], for which the IC50 on human TRPV1 (setting [2]) is more than 100 µM; at rat TRPA1 (setting [3]), 3.8 ± 0.35 µM; at rat TRPM8 (setting [5]), more than 100 µM; at rat TRPV2 (setting [6]), 9 ± 0.8 µM. Also, the “TRPV1 Efficacy (% IM 4 μM)” value on human TRPV1 was less than 10%. The EC50 on rat TRPA1 (setting [4]) amounted to 1.2 ± 0.2 µM. For the same compound, the “TRPA1 Efficacy (%ITC 100 μM)” value on rat TRPA1 (HEK-293) is 97.8 ± 3.3%. Further, the “TRPV2 Efficacy (% IM 4 μM)” value on rat TRPV2 was less than 10%.
Turning to `CCCCC(C)(C)c1cc(O)c2c(c1)OC(C)(CCC=C(C)C)C=C2` (stereo not drawn) [8d, Depentyl-5-α,α-dimethylpentylcannabichromene], the IC50 was more than 100 µM at human TRPV1 (setting [2]), 0.4 ± 0.01 µM on rat TRPA1 (setting [3]), 23.6 ± 7.4 µM on rat TRPM8 (setting [5]) and 13.3 ± 1.1 µM at rat TRPV2 (setting [6]). Moreover, on human TRPV1, the “TRPV1 Efficacy (% IM 4 μM)” value was less than 10%. At rat TRPA1 (setting [4]), the EC50 was determined as 0.15 ± 0.03 µM. The “TRPA1 Efficacy (%ITC 100 μM)” value at rat TRPA1 (HEK-293) is recorded as 98.7 ± 1.9%. In addition, the “TRPV2 Efficacy (% IM 4 μM)” value on rat TRPV2 is less than 10%.
